Measured values taken from patent publication US8216782B2, “PTTG1 as a biomarker for cancer treatment” (Cedars-Sinai Medical Center, priority 2008, dated 2012).

Key:
[1] = tested on: Aurora Kinase A; assay: Western blot of siRNA knock down; type: cell-based; conditions: WT and PTTG1−/− cells
Protocol: Protein extracts were resolved by Nupage 4-12% Bis-Tris Gel (obtained from Invitrogen). Samples were electro-blotted onto PVDF membrane (obtained from Invitrogen), and membranes blocked and incubated with primary antibody. Donkey anti-rabbit- or anti-mouse (obtained from GE Healthcare; NJ) antibodies were conjugated to horseradish […] to reveal immunocomplexes by enhanced chemiluminescence (obtained from Thermo Scientific Pierce Protein Research Products).
Aurora Kinase A siRNA (AM51331, Sense: Described herein as SEQ. ID. NO.: 5; Antisense: Described herein as SEQ. ID. NO.: 6) and PTTG1 siRNA (16706, Sense: Described herein as SEQ. ID. NO.: 7; Antisense: Described herein as SEQ. ID. NO.: 8) were purchased from Ambion, Inc. (TX). Transfections were carried out with lipofectamine 2000 according to protocol.

[2] = tested on: HCT116 PTTG1−/− cells; assay: WST-1 cell proliferation assay; type: cell-based; conditions: for effect on the WT versus PTTG1−/− difference in response to doxorubicin: 3 μM inhibitor pre-incubation or siRNA, 0.63 μM doxorubicin; for sensitivity of PTTG1−/− cell growth versus WT (WST-1): PTTG1−/− vs WT HCT116 cells
Protocol: (§1) FIG. 4 depicts that PTTG1 regulates cell response to Aurora Kinase inhibition, in accordance with an embodiment of the present invention. (A) PTTG1^−/− cell proliferation was attenuated in response to Aurora Kinase A siRNA (mean±S.D., n=3. P<0.05 vs WT). Cells were seeded into 96-well plates, cultured overnight, and then transfected with siRNAs (100 nM). After 72 hours, premixed WST-1 cell proliferation reagent (10 ul) was added to each well. Cells were incubated for a further four hours and shaken thoroughly for one minute before measurement. […] Cells were seeded into 96-well plates, cultured overnight, and then treated with drug as indicated for 48 hours. Viable cells were measured using Premixed WST-1 cell proliferation reagent. (C) Anchorage-dependent colony formation assay was performed as described herein. […] (mean±S.D., n=3. P<0.05 vs WT) (D) Western blot showing that over-expressed PTTG1 rescued PTTG1^−/− sensitivity to Aurora Kinase inhibitor III (12.5 uM) (mean±S.D., n=3. P>0.05 vs WT); PTTG1 knock-down enhanced WT cell sensitivity to Aurora Kinase inhibitor III (12.5 uM) (mean±S.D., n=3. P>0.05 vs PTTG1^−/−). PTTG1^−/−=PTTG1-null or KO cells.
(§2) Cell proliferation was evaluated using WST-1 cell proliferation reagent (obtained from Clontech Laboratories, Inc.; Mountain View, Calif.). Briefly, 90 μl cells were seeded into 96-well plates and cultured overnight, treated with drugs for 48 hours, and 10 μl premixed WST-1 cell proliferation reagent added. Cells were incubated for a further four hours, shaken and absorbance measured at 450 nm using a Victor 3 multiwell plate reader (obtained from PerkinElmer, Inc.; Waltham, Mass.). Cell viability rate was calculated for each well as A450 treated cells/A450 control cells×100% (A450: OD value at 450 nm).

[3] = tested on: HCT116 PTTG1−/− cells; assay: BrdU incorporation assay; type: cell-based
Protocol: The BrdU incorporation assay was carried out using a commercial kit. Briefly, culture cells in 96-well microplates in a final volume of 100 ul culture medium per well. After treatment, add 10 ul BrdU labeling solution per well (final concentration: 10 uM BrdU) and incubate for 2-18 h at 37° C. Carefully remove the culture medium and wash cells twice with 250 ul wash medium containing 10% serum per well. Cells fixed and treated with nucleases working solution for 30 min at 37° C. The incorporated BrdU is detected using anti-BrdU-POD, Fab fragments and peroxidase substrate ABTS. The absorbances of the samples are measured at 405 nm against the background control, using a Victor 3 multiwell plate reader.

[4] = tested on: HCT116 WT cells; assay: WST-1 cell proliferation assay; type: cell-based
Protocol: as §1, §2

[5] = tested on: Aurora Kinase A; conditions: Gadea and Ruderman, 2005; cited from earlier work
[6] = tested on: HCT116 PTTG1−/− cells; assay: Anchorage-dependent colony formation assay; type: cell-based; conditions: PTTG1−/− vs WT HCT116 cells
Protocol: Briefly, 20,000 cells were plated in a six-well culture dish, allowed to attach overnight and treated with depicted drug concentrations. Cells were cultured in standard culture medium containing indicated treatments for twelve days and medium re-freshened every three days. Colonies were stained with 0.5% crystal violet in methanol/acetic acid (3:1) and those composed of >50 cells were counted.

[7] = biological target: T1, Aurora Kinase A (Homo sapiens, UniProt O14965); assay: In vitro kinase activity assay (histone H3 Ser10 phosphorylation); type: biochemical; parameters: purchased Cell Signaling; conditions: PTTG1 0.5, 1, 2 μg
T1 sequence (O14965 1-403): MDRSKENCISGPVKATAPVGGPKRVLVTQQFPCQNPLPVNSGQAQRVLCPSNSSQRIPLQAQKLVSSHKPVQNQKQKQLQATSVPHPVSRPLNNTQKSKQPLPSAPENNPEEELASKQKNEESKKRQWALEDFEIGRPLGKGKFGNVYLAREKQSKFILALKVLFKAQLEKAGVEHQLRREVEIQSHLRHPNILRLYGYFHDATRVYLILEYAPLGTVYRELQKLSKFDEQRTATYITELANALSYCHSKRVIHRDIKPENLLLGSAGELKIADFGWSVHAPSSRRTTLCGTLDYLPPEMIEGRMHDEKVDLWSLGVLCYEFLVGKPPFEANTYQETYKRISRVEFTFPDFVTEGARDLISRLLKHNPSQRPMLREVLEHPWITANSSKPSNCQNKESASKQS
Text: FIG. 3 depicts that PTTG1 attenuates Aurora Kinase A function, in accordance with an embodiment of the present invention. (A) Over-expressed PTTG1 caused abnormal spindle formation as evidenced by unevenly distributed PTTG1-GFP and Aurora Kinase A (white arrows). (B) Western blot showing that over-expressed PTTG1 suppressed Aurora Kinase A T288 auto-phosphorylation and histone H3 Ser10 phosphorylation in HCT116 cells compared to controls. (C) Over-expressed PTTG1 repressed histone H3 Seri 0 phosphorylation as shown by immunofluorescence (white arrows). Scale bar=5 μm. (D) Degradation of mitotic proteins. HCT116 cells were synchronized with 400 ng/ml nocodazole for twelve hours and mitotic cells collected by shake-off, washed and cultured in fresh medium at 37° C. to allow progression of G2/M, and cells harvested at the indicated time points. […] (E) In vitro kinase assay. Aurora Kinase A, histone H3 and increasing PTTG1 or GST-His levels (0.5, 1, 2 μg) were brought to a 30 μl volume reaction system as described herein. After incubations at 37° C. for 20 minutes, reactions were halted and analyzed by Western blotting using histone H3 ser10 antibody. […]
Assays were performed using a modified Aurora kinase A assay kit obtained from Cell Signaling. […] Proteins were separated by standard SDS-PAGE and analyzed by Western blotting.

[8] = biological target: T1, Aurora Kinase A; assay: Protein microarray screening (Protoarray); type: binding; parameters: purchased Invitrogen Protoarray nc-v3; conditions: biotinylated PTTG1 probe
Protocol: (§3) FIG. 1 depicts that PTTG1 interacts with Aurora Kinase A, in accordance with an embodiment of the present invention. (A) PTTG1 was biotin-labeled and incubated with the protein microarray. Attached biotinylated PTTG1 was probed with Streptavidin-Alexa Fluor 647 conjugate. […] (B) Aurora Kinase A antibody was used to co-immunoprecipitate PTTG1, and PTTG1 antibody used to co-immunoprecipitate Aurora Kinase A respectively.
(§4) The human Protoarray nc3.0 study was performed as described by the manufacturer (obtained from Invitrogen Corporation; Carlsbad, Calif.). PTTG1 protein was biotinylated using biotin-XX sulfosuccinimidyl ester, purified by gel filtration, and assessed by Western blot. Appropriate protein aliquots were used to probe a protein microarray (Protoarray nc-v3; obtained from Invitrogen) and attached biotinylate PTTG1 was probed with Streptavidin-Alexa Fluor 647 conjugate. Arrays were scanned by GenePix 4000B (obtained from Molecular Devices Corporation; Sunnyvale, Calif.), and images analyzed using ProtoArray Prospector (Invitrogen).

[9] = biological target: T2, ribosomal protein S10 (Homo sapiens, UniProt P46783); assay: Protein microarray screening (Protoarray); type: binding; conditions: biotinylated PTTG1 probe
T2 construct: purchased Invitrogen Protoarray nc-v3
Protocol: as §3, §4

Aurora Kinase A siRNA: siRNA AM51331, SEQ. ID. NO.: 5 and 6, purchased from Ambion (chain 1 GGCAACCAGUGUACCUCAU; chain 2 AUGAGGUACACUGGUUGCC; chemistry not given here; listed as Homo sapiens)
Aurora Kinase A expression [1]: efficiently knocked down Aurora Kinase A expression | effect on the WT versus PTTG1−/− difference in response to doxorubicin [2]: abolished the differences | sensitivity of PTTG1−/− cell growth versus WT (WST-1) [2]: attenuated

S=C=NCCc1ccccc1 [PEITC, phenethyl isothiocyanate]
sensitivity of PTTG1−/− cells to ROS-generating agents [3]: enhanced sensitivity

CC(=O)N[C@@H](CS)C(=O)O [N-acetyl cysteine (NAC), N-acetyl cysteine]
effect of ROS quencher on PTTG1−/− cell sensitivity to ROS-generating agents [3]: rescue PTTG1−/− cells sensitivity

PTTG1 siRNA: siRNA 16706, SEQ. ID. NO.: 7 and 8, purchased from Ambion (chain 1 GUCUGUAAAGACCAAGGGA; chain 2 UCCCUUGGUCUUUACAGAC; listed as RNA, chemistry not given here; listed as Homo sapiens)
effect of PTTG1 knock down on sensitivity to Aurora Kinase inhibitor III ([4]; WT HCT116 cells, inhibitor III 12.5 uM): increased HCT116 cell sensitivity

Nc1nc(Nc2ccc(S(N)(=O)=O)cc2)nn1C(=O)c1c(F)cccc1F [Aurora Kinase/CDK inhibitor, 4-(5-Amino-1-(2,6-difluorobenzoyl)-1H-[1,2,4]triazol-3-ylamino)-benzenesulfonamide]
sensitivity of PTTG1−/− cell growth versus WT (WST-1) [2]: more susceptible than WT cells

COc1cc2c(Nc3ccc(NC(=O)c4ccccc4)cc3)ncnc2cc1OCCCN1CCOCC1 [ZM 447439]
effect on chromosome condensation and spindle [5]: retards progression of chromosome condensation, leading to a disorganized spindle

O=C(Nc1cccc(Nc2nccc(Nc3cccc(C(F)(F)F)c3)n2)c1)C1CC1 [Aurora Kinase Inhibitor III, Cyclopropanecarboxylic acid-(3-(4-(3-trifluoromethyl-phenylamino)-pyrimidin-2-ylamino)-phenyl)-amide]
viability at 12.5 µM ([4]; Homo sapiens, HCT-116, WT cells, 12.5 uM for 48 h, read-out: cells remaining viable): 73% | effect on the WT versus PTTG1−/− difference in response to doxorubicin [2]: abolished the different response | viability at 12.5 µM ([2]; Homo sapiens, HCT-116, PTTG1-null HCT116 cells, 12.5 uM for 48 h, read-out: cells remaining viable): 56% | sensitivity of PTTG1−/− cell growth versus WT (WST-1) [2]: more sensitive | sensitivity of PTTG1−/− cells versus WT (colony formation) [6]: more sensitive

OO [H2O2]
sensitivity of PTTG1−/− cells to ROS-generating agents [3]: enhanced sensitivity

COc1cc2ncnc(Nc3ccc(NC(=O)c4ccccc4)cc3)c2cc1OC [Aurora Kinase Inhibitor II, 4-(4′-Benzamidoanilino)-6,7-dimethoxyquinazoline]
sensitivity of PTTG1−/− cell growth versus WT (WST-1) [2]: more susceptible than WT cells

B1: PTTG1: pituitary tumor transforming gene protein (securin); His-PTTG1 expressed in insect cells, biotinylated for the array (protein, listed as Homo sapiens)
chain: MATLIYVDKENGEPGTRVVAKDGLKLGSGPSIKALDGRSQVSTPRFGKTFDAPPALPKATRKALGTVNRATEKSVKTKGPLKQKQPSFSAKKMTEKTVKAKSSVPASDDAYPEIEKFFPFNPLDFESFDLPEEHQIAHLPLSGVPLMILDEERELEKLFQLGPPSPVKMPSPPWESNLLQSPSSILSTLDVELPPVCCDIDI
modifications: His tag, biotinylated
notes: pituitary tumor transforming gene protein (securin); His-PTTG1 expressed in insect cells, biotinylated for the array
Aurora Kinase A phosphorylation of histone H3 [7]: dose-dependently inhibits | Z-score of interaction [8]: 4.90 | Z-score of interaction [9]: 3.34
